In US8119657B2, “Enantiomeric compositions of 2-amino-1-(2-isopropylpyrazolo[1,5-α]pyridin-3-yl)propan-1-one and related methods” (MediciNova, Inc., priority 2009, dated 2012):
“Also recorded” adds a separate entry of the source.

Tests used:
[1] = Bioavailability and duration of action of (S)-AV1013
[2] = Dog pharmacokinetics of the enantiomers after oral dosing of racemic AV1013; type: in vivo; settings: for Cmax: po
Procedure: Three male beagle dogs were dosed orally with 10 mg/kg racemic AV1013 via gavage. AV1013 was dissolved in water at 5 mg/ml and dosed via gavage at a volume of 2 ml/kg. Blood samples were collected via the jugular vein at 5, 15 and 30 minutes, 1, 2, 4, 6, 8, and 24 hours post dosing.
(§1) A sensitive and specific chiral HPLC/MS/MS bioanalytical method for the detection of (S)-AV1013 and (R)-AV1013 enantiomers in rat and dog plasma was utilized. AV1013 enantiomers and the internal standard (AV1040, an analog of AV1013) were isolated from plasma by protein precipitation induced by acetonitrile. After centrifugation to sediment the proteins, the supernatant fractions were analyzed by high performance liquid chromatography (LC) in conjunction with a triple quadrupole mass spectrometer that used electrospray ionization in tandem with positive ionization (MS/MS) according to the conditions below. The LLOQ (lower level of quantitation) was typically <3 ng/mL.
(§2) Analysis of pharmacokinetic parameters was performed for each enantiomer via LC/MS bioanalytics and WinNonlin™ analysis (version 4.0.1; Pharsight Corp., Mountain View, Calif.), commercial software designed for the analysis of PK data. The PK modeling was based on a non-compartmental model with gradual input into the central compartment. Computation of the area under the curve (AUC) was based on the sum of trapezoidal areas for the plotted plasma concentration-time data. AUC and associated parameters were estimated by log-linear regression analysis of the terminal phase.

Rolipram binding site = assay: Inhibition of binding at the Rolipram binding site; settings: 10 uM
Water solubility = type: physicochemical
[3] = In vivo interconversion of enantiomers in rats dosed with enantiomerically pure (S)-AV1013; design: species or system rat; settings: rats dosed with (S)-AV1013 of 99% enantiomeric excess, LLOQ=5 ng/mL
[4] = biological target: T1, rhMIF (recombinant human Macrophage migration Inhibitory Factor) (Homo sapiens, UniProt P14174); assay: MIF-induced migration of human peripheral blood monocytes (PBMCs); type: cell-based; settings: rhMIF 90 nM, dilution series of inhibitor
T1 sequence (P14174 2-115 limits assumed): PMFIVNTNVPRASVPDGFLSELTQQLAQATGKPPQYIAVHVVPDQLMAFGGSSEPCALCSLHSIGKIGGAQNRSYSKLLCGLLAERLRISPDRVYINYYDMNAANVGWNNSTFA
Procedure: The chemo attractant activities of rhMIF (recombinant human Macrophage migration Inhibitory Factor) and the effect of inhibitors were measured using human peripheral blood monocytes (PBMCs) isolated from whole blood by centrifugation on Histopaque-1077 (Sigma). The cells were washed in RPMI-1640, diluted to 1×10^6 cells/ml and analyzed immediately. These assays were carried out in 24 well tissue culture plates utilizing 8.0 μm cell culture inserts (Falcon). Recombinant hMIF (90 nM), diluted in RPMI was placed in the cells of a 24 well plate with or without inhibitor (10-fold molar excess or dilution series) and allowed to incubate for 30 min at 37° C., 5% CO2. Washed human monocytes were added to the upper chamber of 8.0 μm cell culture inserts and allowed to incubate for 3 hrs at 37° C., 5% CO2. Cells that migrate through the membrane were fixed in methanol and stained with Geimsa, prior to cell counting using light microscopy.
Results are expressed as the mean number of cells counted per high power field for each of two replicates to obtain statistically significant data. (Legend: −Star=no human MIF, Skull=no human MIF+10 uM (S)-AV1013. See FIGS. 5A and 5B.

[5] = Rat pharmacokinetics of the enantiomers after oral dosing of racemic AV1013; type: in vivo; settings: for Cmax: po
Procedure: Three male Sprague-Dawley rats were dosed orally via gavage with 25 mg/kg racemic AV1013 dissolved in water. Serial blood samples were collected from the tail vein at 5, 15, and 30 min, 1, 3, and 6 hours post dosing. Samples were processed for plasma via centrifugation and plasma samples were stored frozen prior to analysis.
as §1, §2

[6] = tested on: rat chronic constriction injury model of neuropathic pain; assay: Rat chronic constriction injury model of neuropathic pain (von Frey mechanical allodynia); type: in vivo; settings: rat CCI, oral 25 mg/kg, 2 hours post-dosing, 25 mg/kg
Source text: The (S)- and the (R)-enantiomer of AV1013 were each evaluated in a rat chronic constriction injury model of neuropathic pain (see, Ledeboer et. al., Neuron Glia Biology, (2006), p 279-291), to determine whether differences in their activity could be observed.
To induce allodynia, male Sprague-Dawley rats underwent chronic constriction injury (CCI) to the sciatic nerve as described by Bennett and Xie, Pain 1988; 33(1):87-107. The plantar surface of the hind paws was stimulated with von Frey filaments (Stoelting) to induce a withdrawal response by blinded personnel. The bending force of fiber required to induce a 50% withdrawal response was calculated following CCI surgery (pre-dosing baseline).
Allodynic rats (N=5-6), received an oral administration of (S)-AV1013 (25 mg/kg), AV1013-R (100 mg/kg) or vehicle. Two hours post-dosing, 50% paw withdrawal threshold was determined by blinded testers using von Frey filaments. The 50% withdrawal threshold prior to CCI surgery, pre-dosing (10 days post-surgery), and 2 hours post-dosing are plotted in FIG. 3.

With `CC(C)c1nn2ccccc2c1C(=O)[C@H](C)N` [(S)-AV1013, (S)-2-amino-1-(2-isopropylpyrazolo[1,5-a]pyridin-3-yl)propan-1-one] the “in vivo duration of action” value [1] was 2 to 24 h, the bioavailability ([1]; in vivo, share of the (S)-enantiomer dosed that is bioavailable) was > 70% and the “AUC of (S) relative to (R) enantiomer” value ([2]; dog, oral dosing of racemate) was > 3 fold. For the same compound, the “Cmax of (S) relative to (R) enantiomer” value ([2]; dog, oral dosing of racemate) was “at least 2 fold”, the “Cmax of (S) relative to (R) enantiomer” value ([2]; dog, oral dosing of racemate, listed as (S)-enantiomer) was > 2 fold and the Cmax ([2]; male, beagle, dog, plasma, 10 mg/kg, beagle dog, oral 10 mg/kg racemic AV1013, plasma, read-out: Cmax) was 2630 ng/mL. It also gave a Cmax ([2]; male, beagle, dog, plasma, 10 mg/kg, dog, oral dosing of racemate, rounded values, read-out: mean peak plasma levels (Cmax)) of 2600 ng/mL, an AUC ([2]; male, beagle, plasma, 10 mg/kg, dog, oral dosing of racemate, rounded values, read-out: calculated area under the curves (AUC)) of 24200 ng·h/mL and an AUC(0-t) ([2]; male, beagle dog, oral 10 mg/kg racemic AV1013, plasma) of 24200 ng·h/mL. The “inhibition of the Rolipram binding site” value (Rolipram binding site) was 12%, the water solubility (Water solubility) was “good water solubility” and the “plasma levels of the (R) enantiomer after dosing (S) (in vivo racemization)” value [3] was “no detectable plasma levels of the corresponding (R) enantiomer”. For the same compound, the “plasma levels of the (R) enantiomer after dosing (S) (in vivo racemization)” value ([3]; listed as (S)-enantiomer) was “does not result in detectable levels of the (R)-enantiomer”, the “antagonism of MIF-induced cell migration” value [4] was “antagonize MIF-induced macrophage migration in a dose-dependent fashion; also recorded: antagonize MIF-induced mononuclear cell migration in a similar dose dependent fashion” and the AUC(0-t) ([5]; male, Sprague-Dawley, oral 25 mg/kg racemic AV1013, plasma) was 5950 ng·h/mL. It also gave an AUC ([5]; male, Sprague-Dawley, plasma, 25 mg/kg, oral dosing of racemate, rounded values, read-out: calculated area under the curves (AUC)) of 6000 ng·h/mL, a Cmax ([5]; male, Sprague-Dawley, plasma, 25 mg/kg, oral 25 mg/kg racemic AV1013, plasma, read-out: Cmax) of 1260 ng/mL and a Cmax ([5]; male, Sprague-Dawley, plasma, 25 mg/kg, oral dosing of racemate, rounded values, read-out: mean peak plasma levels (Cmax)) of 1300 ng/mL. The “AUC of (S) relative to (R) enantiomer” value ([5]; oral dosing of racemate) was “around 17 fold”, the “Cmax of (S) relative to (R) enantiomer” value ([5]; oral dosing of racemate) was “at least 3 fold” and the “attenuation of mechanical allodynia (50% paw withdrawal threshold)” value [6] was “substantially more potent in treating neuropathic pain than the corresponding (R) enantiomer”. The “attenuation of mechanical allodynia (50% paw withdrawal threshold)” value ([6]; listed as (S)-enantiomer) was “more potent in vivo than is the (R)-enantiomer”.
